This is an account of results in US9580426B2, “Compounds that expand hematopoietic stem cells” (Novartis AG, priority 2008, dated 2017).

This test deals with Primary adult CD34+ human hematopoietic stem cells (HSCs). The test is described as follows: % CD34+ assay: HSC expansion screen, dose response. The test is classed as cell-based. The note with it: Homo sapiens, Hematopoietic stem cell; dose response 1 nM to 10 μM; total number and/or percent of CD34+ cells. The procedure:
Primary adult CD34^+ human hematopoietic stem cells (HSCs) are cultured and screened to identify compounds of the invention that facilitate HSC expansion. The cells are analyzed for the presence of the desired phenotype (CD34 expression). Compounds of the invention promote HSC expansion in a dose dependent manner.
Culture Medium: StemSpan SFEM medium is serum-free medium (StemCell Technologies, Vancouver, BC) supplemented with the following human recombinant cytokines: thrombopoietin, interleukin-6, Flt-3 ligand, and stem cell factor (all from R&D Systems, Minneapolis, Minn.), each at a final concentration of 50 ng/mL, with vehicle (DMSO) or a compound of the invention.
Human Cell Culture: Fresh human leukophoresed G-CSF mobilized peripheral blood from normal donors, CD34^+ cells from adult bone marrow and cryopreserved human cord blood CD34^+ cells are purchased from AllCells (Berkeley, Calif.). Human CD34^+ cells are enriched from leukophoresed G-CSF mobilized peripheral blood using magnetic cell sorting (MACS, Direct CD34 Progenitor Cell Isolation Kit, Miltenyi Biotec, Bergisch Gladbach, Germany) and cryopreserved. CD34^+ cell purity, checked by flow Cytometry, is higher than 90%. After thawing, the cell viability tested by trypan blue exclusion is higher than 70%. The thawed cells are centrifuged and resuspended with StemSpan medium before being aliquoted for immediate culture. Cells are plated at 10^4 cells/mL in a 384 well plate (Greiner Bio-One, Monroe, N.C.) with 50 μL of medium per well for 7 days. Every 7 days the cells are transferred to larger well plates and fresh medium is added to keep the cell density between 10^4 and 5×10^5 cells/mL. Cells were cultured at 37° C. in 5% CO2. For transplantation, cells were cultured in 75 cm^2 flasks before the cells were transplanted into mice. At a concentration of 1 micromolar, 4-(2-(2-(benzo[b]thiophen-3-yl)-9-isopropyl-9H-purin-6-ylamino)ethyl)phenol (compound 1, table 1; example 1), 4-(2-(2-(benzo[b]thiophen-3-yl)-9-sec-butyl-9H-purin-6-ylamino)ethyl)phenol (compound 2, table 1), and N-(2-(1H-indol-3-yl)ethyl)-2-(benzo[b]thiophen-3-yl)-9-isopropyl-9H-purin-6-amine (compound 9, table 1) each gives rise to a greater than 10-fold increase in the number of CD34^+ CD45RA^− cells derived from 1000 mPB CD34^+ HSCs after 21 days compared to vehicle. Compounds of the invention were assayed in a dose response format (1 nM to 10 μM) to determine the effective concentration that produced the desired effect in 50% of the cells (EC50).
One may read the EC50 as the midpoint of the concentration-response curve. Lower therefore signals greater potency. Turning to `CCC(C)n1cnc2c(NCCc3ccc(O)cc3)nc(-c3csc4ccccc34)nc21` (stereo not drawn) [Example 2, 4-(2-(2-(benzo[b]thiophen-3-yl)-9-sec-butyl-9H-purin-6-ylamino)ethyl)phenol], it took 0.03 µM to reach a half-maximal effect (EC50). `Oc1ccc(CCNc2nc(-c3csc4ccccc34)nc3c2ncn3C(c2ccccc2)c2ccccc2)cc1` [Example 3] came in with an EC50 of 0.15 µM.

Compound `Oc1ccc(CCNc2nc(-c3csc4ccccc34)nc3c2ncn3C2CCCOC2)cc1` (stereo not drawn) [Example 4] returned a concentration giving a half-maximal response (EC50) of 1.49 µM. The value for `Oc1ccc(CCNc2nc(-c3csc4ccccc34)nc3c2ncn3Cc2ccc(C(F)(F)F)cc2)cc1` [Example 5] was 2.08 µM; that for `CC(C)Cn1cnc2c(NCCc3ccc(O)cc3)nc(-c3csc4ccccc34)nc21` [Example 6] was 2.53 µM; that for `Cn1cnc2c(NCCc3ccc(O)cc3)nc(-c3csc4ccccc34)nc21` [Example 7] was 7.2 µM. As to `Cc1ccc(Cn2cnc3c(NCCc4ccc(O)cc4)nc(-c4csc5ccccc45)nc32)cc1` [Example 8], the midpoint of the response, the EC50, lay at 6.03 µM. For `CC(C)n1cnc2c(NCCc3c[nH]c4ccccc34)nc(-c3csc4ccccc34)nc21` [Example 9, N-(2-(1H-indol-3-yl)ethyl)-2-(benzo[b]thiophen-3-yl)-9-isopropyl-9H-purin-6-amine] the value was 0.02 µM; for `CC(C)n1cnc2c(NCCc3ccsc3)nc(-c3csc4ccccc34)nc21` [Example 10], 1.38 µM. Consider `CC(C)n1cnc2c(NCCc3cccc(O)c3)nc(-c3csc4ccccc34)nc21` [Example 11], for which the EC50 is 1.45 µM. With `CC(C)n1cnc2c(NCCc3ccc(F)cc3)nc(-c3csc4ccccc34)nc21` [Example 12], the EC50 was 1.76 µM. The value for `CC(C)n1cnc2c(NCCc3ccc(N)cc3)nc(-c3csc4ccccc34)nc21` [Example 13] was 5.75 µM; that for `CC(C)n1cnc2c(NCCc3ccc(O)cc3)nc(-c3cncnc3)nc21` [Example 14] was 0.17 µM; that for `CC(C)n1cnc2c(NCCc3ccc(O)cc3)nc(-c3cccnc3)nc21` [Example 15] was 0.19 µM. The value for `CC(C)n1cnc2c(NCCc3ccc(O)cc3)nc(-c3ccccc3)nc21` [Example 16] was 0.46 µM; that for `CC(C)n1cnc2c(NCCc3ccc(O)cc3)nc(-c3ccsc3)nc21` [Example 17] was 0.97 µM; that for `CC(C)n1cnc2c(NCCc3ccc(O)cc3)nc(-c3ccoc3)nc21` [Example 18] was 3.9 µM. The compound `Fc1ccc(CCNc2nc(-c3csc4ccccc34)nc3c2ncn3-c2ccccc2)cc1` [Example 19] displayed a 50% effective concentration (EC50) of 1.1 µM. This EC50 lies about 3.5-fold lower than the previous one. The value for `CC(C)n1c(-c2ccc(-c3ccccc3)cc2)nc2c(NCc3ccccc3)ncnc21` [Example 20] was 7.8 µM; that for `CCCCCCCC(C)n1cnc2c(NCCc3ccc(O)cc3)nc(-c3csc4ccccc34)nc21` (stereo not drawn) [Example 21] was 0.13 µM; that for `CCC(C)n1cnc2c(NCCc3c[nH]c4ccccc34)nc(-c3csc4ccccc34)nc21` (stereo not drawn) [Example 23] was 0.019 µM. For `CC(C)n1cnc2c(NCCc3ccc(O)cc3)nc(-c3ccncc3)nc21` [Example 31] the value was 0.66 µM; for `CCOC(=O)c1cncc(-c2nc(NCCc3ccc(O)cc3)c3ncn(C(C)C)c3n2)c1` [Example 32], 5.6 µM; for `COc1cncc(-c2nc(NCCc3ccc(O)cc3)c3ncn(C(C)C)c3n2)c1` [Example 33], 0.27 µM.

Turning to `CC(C)n1cnc2c(NCCc3ccc(O)cc3)nc(-c3ccc(F)nc3)nc21` [Example 34], the EC50 was 0.16 µM. The value for `Cc1ccncc1-c1nc(NCCc2ccc(O)cc2)c2ncn(C(C)C)c2n1` [Example 35] was 0.34 µM; that for `CC(C)n1cnc2c(NCCc3ccc(O)cc3)nc(-c3cncc(C#N)c3)nc21` [Example 37] was 0.024 µM. `CC(C)n1cnc2c(NCCc3ccc(O)cc3)nc(N3CCCC3)nc21` [Example 38] yielded a concentration for a half-maximal effect (EC50) of 1.6 µM. For `CC(C)n1cnc2c(NCCc3ccc(O)cc3)nc(-n3ccnc3)nc21` [Example 40] the value was 0.26 µM; for `CC(C)n1cnc2c(NCCc3ccc(O)cc3)nc(-c3ccnnc3)nc21` [Example 42], 0.64 µM.

As to `CC(C)n1cnc2c(NCCc3ccc(O)cc3)nc(-c3cnccn3)nc21` [Example 43], the EC50 amounted to 2.4 µM.

In turn, `CC(C)n1cnc2c(NCCc3ccc(O)cc3)nc(-c3ccccn3)nc21` [Example 44] registered an EC50 of 1.7 µM. The value for `Cc1cncc(-c2nc(NCCc3ccc(O)cc3)c3ncn(C(C)C)c3n2)c1` [Example 45] was 0.063 µM. The value for `CC(C)n1cnc2c(NCCc3ccc(O)cc3)nc(-c3cncc(S(C)(=O)=O)c3)nc21` [Example 46] was 0.65 µM; that for `CC(C)n1cnc2c(NCCc3ccc(O)cc3)nc(-c3cnccc3Cl)nc21` [Example 48] was 0.51 µM. Regarding `CC(C)n1cnc2c(NCCc3ccc(O)cc3)nc(-c3cncc(F)c3)nc21` [Example 50], it took 0.034 µM to reach a half-maximal effect (EC50). In the case of `CC(C)n1cnc2c(NCCc3ccc(O)cc3)nc(-c3cccs3)nc21` [Example 55], the EC50 is 1.3 µM. In turn, `Cc1cscc1-c1nc(NCCc2ccc(O)cc2)c2ncn(C(C)C)c2n1` [Example 58] showed an EC50 of 0.24 µM. This EC50 is about 5.4-fold lower than that of the compound before. The value for `COc1cc(CCNc2nc(-c3cccnc3)nc3c2ncn3C(C)C)ccc1O` [Example 60] was 3.2 µM. For `COc1ccc2c(CCNc3nc(-c4cccnc4)nc4c3ncn4C(C)C)c[nH]c2c1` [Example 61] the value was 0.13 µM; for `Cc1ccc2[nH]cc(CCNc3nc(-c4cccnc4)nc4c3ncn4C(C)C)c2c1` [Example 62], 0.72 µM; for `CC(C)n1cnc2c(NCCN3CCNC3=O)nc(-c3cccnc3)nc21` [Example 70], 2.7 µM.

For `CC(C)n1cnc2c(NCCNc3ccccn3)nc(-c3cccnc3)nc21` [Example 72], the EC50 worked out at 6.3 µM. Regarding `CC(C)n1cnc2c(NCCCc3cn[nH]c3)nc(-c3cccnc3)nc21` [Example 73], the EC50 was 8.2 µM. With `Cc1n[nH]c(SCCNc2nc(-c3cccnc3)nc3c2ncn3C(C)C)n1` [Example 76], a half-maximal response (EC50) required 6 µM. For `CC(C)n1cnc2c(NCCN3CCNC3=O)nc(-c3csc4ccccc34)nc21` [Example 81] the value was 2.7 µM; for `CC(C)n1cnc2c(NCCc3n[nH]c(N)n3)nc(-c3csc4ccccc34)nc21` [Example 82], 7.9 µM. The value for `CC(C)n1cnc2c(NCCNc3ccccn3)nc(-c3csc4ccccc34)nc21` [Example 83] was 7.1 µM. The compound `CC(C)n1cnc2c(NCCCc3cn[nH]c3)nc(-c3csc4ccccc34)nc21` [Example 84] registered an EC50 of 5.4 µM. For `Cc1n[nH]c(C)c1CCCNc1nc(-c2csc3ccccc23)nc2c1ncn2C(C)C` [Example 88] the value was 2.6 µM. The compound `CC(C)n1cnc2c(NCCNC(N)=O)nc(-c3csc4ccccc34)nc21` [Example 89] came in with an EC50 of 1.4 µM. For the compound `CC(C)n1cnc2c(NCc3ccc4[nH]c(=O)[nH]c4c3)nc(-c3csc4ccccc34)nc21` [Example 90], a half-maximal response (EC50) required 3.3 µM.

In the case of `CC(C)n1cnc2c(NCCc3c[nH]c4ccccc34)nc(-c3cccnc3)nc21` [Example 91], the midpoint of the response, the EC50, lay at 0.029 µM. The value for `CC(C)n1cnc2c(NCCc3ccc(NS(C)(=O)=O)cc3)nc(-c3cccnc3)nc21` [Example 92] was 7.1 µM.
